SMILES strings stand for the structures.

Results on one compound are retold here after US20180345047A1, “METHOD OF PROMOTING HAIR GROWTH” (Yeda Research and Development Co. Ltd., priority 2015, published 2018).

Assay [1] deals with senescent epidermal cells. Description: Elimination of senescent cells in the skin epidermis of p14ARF-expressing mice (SA-β-Gal, p14ARF, cleaved caspase-3 stains). It counts as in vivo, K5-rtTA/tet-p14 mice. The conditions noted are these: 75 mg/kg intraperitoneally. The method, then: (§1) Mouse experiments: K5-rtTA/tet-p14, described in (Toakrsly-Amiel et al.) were held on a mixed C57B1/129sv background. Mice received doxycycline (2 mg/ml) in the drinking water at 3 weeks of age for activation of the p14ARF transgene. Sibling tet-p14 single transgene control mice received doxycycline for the same period. After four weeks of transgene activation, ABT-737 (75 mg/kg in 30% propylene glycol, 5% Tween 80, 3.3% dextrose in water pH 4-5) or vehicle was injected into p14ARF-expressing mice intraperitoneally for 2 or 4 consecutive days. Mice were then shaved, sacrificed and back skins were paraffin embedded for immunohistology or frozen in OCT solution for cryosectioning and SA-β-gal stains.
Immunohistology: Immunohistology was performed according to standard procedures on 5 μm paraffin sections, using Peroxidase Substrate kits (Vector) or fluorescently labeled secondary antibodies (Jackson). Antibodies used: p14ARF (Abcam), CC3 (Cell Signaling), Ki67 (Labvision) and K15 (Santa Cruz). […] Positive cells were scored from >10 microscopic fields in each sample either by direct microscopic observation (SA-β-gal, p14) or on collected images (all other stains).
The present inventors set out to test whether the survival signals provided by Bcl-2 family members are necessary for the survival and retention of senescent cells in tissues. […] Concomitantly, the percentage of epidermal cells in which the transgenic p14^ARF protein could be detected was reduced (FIGS. 1D-E), indicating preferred elimination of transgene-expressing cells. Increased levels of apoptosis were detected in the epidermis after 2 days of ABT-737 treatment (FIGS. 1F-G), consistent with increased apoptosis as the mechanism of senescent cell elimination. […]

Assay [2] has as its system hair-follicle stem cells in the bulge. Description: Hair-follicle bulge stem cell proliferation and number in p14ARF-expressing mice (Ki67/K15 stain, CD34/CD49f FACS). Format: in vivo, K5-rtTA/tet-p14 mice. The settings on record: vs vehicle. The method, then: as §1
Immunohistology: Immunohistology was performed according to standard procedures on 5 μm paraffin sections, using Peroxidase Substrate kits (Vector) or fluorescently labeled secondary antibodies (Jackson). Antibodies used: p14ARF (Abcam), CC3 (Cell Signaling), Ki67 (Labvision) and K15 (Santa Cruz). For Senescence-associated β-Galactosidase (SA-β-gal) stains, 10-12 μm cryosections of OCT-embedded mouse skins were fixed in 0.5% glutaraldehyde for 15 minutes, stained over night at 37° C. with 40 mM phosphate buffer pH=6 with 5 mM K4Fe(CN)6, 5 mM K3Fe(CN)6, 150 mM NaCl, 2 mM MgCl2 and 1 mg/ml X-gal, washed in PBS, fixed in 95% ethanol for 15 minutes, counterstained with nuclear fast red, dehydrated and mounted. Bright field images were collected using an Olympus CX41 and DS-Fi1 camera and processed using NIS Elements software (Nikon). Fluorescent images were taken using an Olympus FV1000 confocal microscope. Positive cells were scored from >10 microscopic fields in each sample either by direct microscopic observation (SA-β-gal, p14) or on collected images (all other stains).
Upon p14^ARF activation in mice at 3 weeks of age nearly all hair follicles are arrested in the resting (telogen) state, and only rare stem cells in the bulge express the proliferation marker Ki67^36 (FIGS. 5H-I). […] This effect was also evident three days after treatment was stopped (FIGS. 2A-B). […]

Regarding `CN(C)CC[C@H](CSc1ccccc1)Nc1ccc(S(=O)(=O)NC(=O)c2ccc(N3CCN(Cc4ccccc4-c4ccc(Cl)cc4)CC3)cc2)cc1[N+](=O)[O-]` [ABT-737], the “number of senescent cells in the epidermis, determined by SA-β-Gal staining” value in assay [1] (4 consecutive days, after 4 weeks p14ARF activation, relative to vehicle-treated mice) is given as “dramatically reduced”. In assay [1] (2 day treatment, vs vehicle), the “percentage of epidermal cells in which the transgenic p14ARF protein could be detected” value is “reduced”. In addition, the “levels of apoptosis in the epidermis (cleaved caspase-3)” value in assay [1] (after 2 days of treatment, vs vehicle) was “Increased”. Besides, the “number of CD34+/CD49f high bulge stem cells” value in assay [2] (FACS of epidermal cells after 2 days of treatment) is listed as “increased”. For the same compound, the “increase in proliferating (Ki67+) hair-follicle stem cells in the bulge after end of treatment” value in assay [2] (treated 2 days, three days after treatment was stopped) is “also evident”. Moreover, in assay [2] (treatment after 2-4 weeks of p14ARF induction, 75 mg/kg intraperitoneally), the “numbers of proliferating (Ki67+) hair-follicle stem cells in the bulge” value is recorded as “increase”.
